Where two headings read alike, the source gives them in different places.
Assays:
cockroaches [1] = type: in vivo; conditions: 15 mg/jar alone
Description: (§1) Glass jars were treated with different concentrations of test chemicals in acetone. The acetone was allowed to evaporate and the cockroaches were exposed to the jars. […] This experiment was repeated 2 times.

cockroaches [2] = assay: Example 12: glass jar test, thymol with conventional insecticides; type: in vivo; conditions: 1 hr.; 10 mg/jar alone
Description: as §1

cockroaches [3] = assay: Example 14: glass jar residual test, thymol with conventional insecticides; type: in vivo; conditions: 15 mg/jar alone
Description: as §1

Spodoptera litura = conditions: in vivo
Description: There were five replicates with 10 larvae per replicate, and this was repeated two times. Mortality was observed after 24 hours exposure.

female rats = assay: Example 2: toxicity of tested dose in female rats; type: in vivo, rat; conditions: female rats (8-10 week-old), up to 5 days after treatment
From the text: The Blend-5 is a combination of plant essential oils consisting of thymol, eugenol, trans-anethole, alpha-terpineol, and citronellal.

cockroaches [4] = type: in vivo; conditions: 10 days; 30 mg/jar alone
Description: as §1

cockroaches [5] = type: in vivo
Description: as §1

SMILES: Cc1ccc(C(C)C)c(O)c1 [Thymol]
- % Mortality at time interval in days after treatment (cockroaches [1]; 1 hr.): 30%
- % Mortality at time interval in days after treatment (cockroaches [1]; 7 days): 0%
- % Mortality at time interval in days after treatment (cockroaches [2]): 0%
- % Mortality at time interval in days after treatment (cockroaches [3]; 1 hr.): 10%
- % Mortality at time interval in days after treatment (cockroaches [3]; 7 days): 20%
- % Mortality at time interval in days after treatment (cockroaches [3]; 14 days): 10%
- Mortality (%) 24 hrs. (Spodoptera litura): 98%
- death or sign of toxicity (body weight and appetite) (female rats): did not induce any death or sign of toxicity
- % Mortality at time interval in days after treatment (cockroaches [4]): 0%
- % Mortality at time interval in days after treatment (cockroaches [5]; 1 hr., 5 mg/jar alone): 0%
- % Mortality at time interval in days after treatment (cockroaches [5]; 1 hr., 10 mg/jar alone): 10%
- % Mortality at time interval in days after treatment (cockroaches [5]; 3 days, 5 mg/jar alone): 0%
- % Mortality at time interval in days after treatment (cockroaches [5]; 3 days, 10 mg/jar alone): 0%
- % Mortality at time interval in days after treatment (cockroaches [5]; 10 days, 5 mg/jar alone): 0%
- % Mortality at time interval in days after treatment (cockroaches [5]; 10 days, 10 mg/jar alone): 0%
- % Mortality at time interval in days after treatment (cockroaches [5]; 10 days, 30 mg/jar alone): 0%

From patent publication US7534447B2, “Synergistic and residual pesticidal compositions containing plant essential oils” (priority 1998, dated 2009)
